Numbering of substitutions follows the chain as printed.
Key:
Format in all cases: cell-based
AR protein [1] = target: T1, AR protein (Homo sapiens, UniProt P10275, T878A); test: Degradation of AR protein in LNCaP cells (Western blot); details: LNCaP cells, 8 hours, Western blot grayscale, GAPDH internal reference; for inhibition at 0.01 µM: compound 10 nM, read-out: Degradation rates of the AR protein in LNCaP cells, 10 nM (%); for inhibition at 0.1 µM: compound 100 nM, read-out: Degradation rates of the AR protein in LNCaP cells, 100 nM (%)
T1 construct: degradation activity of the compounds disclosed in the present disclosure on AR protein in LNCaP cells; host or cells: LNCaP FGC
T1 sequence (P10275 1-920 T878A): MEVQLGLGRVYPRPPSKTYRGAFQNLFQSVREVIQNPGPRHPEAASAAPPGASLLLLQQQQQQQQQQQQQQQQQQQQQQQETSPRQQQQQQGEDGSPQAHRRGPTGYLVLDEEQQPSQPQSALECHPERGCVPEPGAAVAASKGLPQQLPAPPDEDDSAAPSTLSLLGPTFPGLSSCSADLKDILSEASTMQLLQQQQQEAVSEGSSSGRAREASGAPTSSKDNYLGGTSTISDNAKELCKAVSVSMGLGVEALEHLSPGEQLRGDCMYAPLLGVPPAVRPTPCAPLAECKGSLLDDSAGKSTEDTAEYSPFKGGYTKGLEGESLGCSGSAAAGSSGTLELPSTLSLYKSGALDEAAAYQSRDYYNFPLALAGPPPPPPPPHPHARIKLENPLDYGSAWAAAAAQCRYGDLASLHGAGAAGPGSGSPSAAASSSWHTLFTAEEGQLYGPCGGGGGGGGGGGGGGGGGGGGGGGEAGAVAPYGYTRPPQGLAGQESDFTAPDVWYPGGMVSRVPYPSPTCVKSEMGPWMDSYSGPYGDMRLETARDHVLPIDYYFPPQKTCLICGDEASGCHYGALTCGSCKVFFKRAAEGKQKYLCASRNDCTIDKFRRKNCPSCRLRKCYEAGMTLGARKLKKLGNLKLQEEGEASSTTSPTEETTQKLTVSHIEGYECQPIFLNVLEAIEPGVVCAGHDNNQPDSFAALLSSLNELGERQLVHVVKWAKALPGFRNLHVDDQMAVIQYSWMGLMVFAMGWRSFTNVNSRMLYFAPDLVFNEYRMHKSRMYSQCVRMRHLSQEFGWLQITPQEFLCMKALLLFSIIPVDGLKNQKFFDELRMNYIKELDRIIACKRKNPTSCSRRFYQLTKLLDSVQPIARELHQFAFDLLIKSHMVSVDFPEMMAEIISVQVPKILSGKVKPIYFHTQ
In short: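 Percent AR degradation was derived from GAPDH-normalised Western blot band intensities (infrared detection) in LNCaP lysates.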

AR protein [2] = target: T2, AR protein (Homo sapiens, UniProt P10275); test: Degradation of AR protein in VCaP cells (Western blot); details: 8 hours; for inhibition at 0.01 µM: compound at 10 nM, read-out: Degradation rate of the AR protein in VCaP cells, 10 nM (%); for inhibition at 0.1 µM: compound at 100 nM, read-out: Degradation rate of the AR protein in VCaP cells, 100 nM (%)
T2 construct: degradation activity of the compounds disclosed in the present disclosure on AR protein in VCaP cells; host or cells: VCaP
T2 sequence (P10275 1-920): T1 sequence (P10275 1-920 T878A) with A878T
In short: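 Western blot readout: AR band grayscale normalised to GAPDH, used to derive degradation rate. Lysates came from VCaP cells exposed to compound for 8 h, with solvent controls run in parallel.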

VCaP cells = test: Inhibition of proliferation of VCaP cells (WST-8); details: Homo sapiens; VCaP cells, 168 hours, WST-8 absorbance at 450 nm; read-out: IC50 for inhibiting the proliferation of VCaP cells
In short: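 Proliferation was read by WST-8 on day nine. Cells were VCaP FGC, seeded at 15000 cells per well in 10% FBS DMEM and kept at 37° C with 5% CO2.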

LNCaP FGC cells = test: Inhibition of proliferation of LNCaP cells (WST-8); details: Homo sapiens, LNCaP, 96 h, LNCaP FGC cells, 96 hours, WST-8 absorbance at 450 nm; read-out: IC50 for inhibiting the proliferation of LNCaP cells
Procedure: The cells were cultured in a cell culture incubator with 5% CO2 at 37° C. overnight. […] On the sixth day, 96 well plates were taken out, and 20 μL of WST-8 (Beytime, C0040) reagent was added to each well.

Work on `COc1cc(O[C@H]2C(C)(C)[C@H](NC(=O)c3ccc(N4CCC(C)(CN5CC6(CCc7cc8c(cc7O6)C(=O)N(C6CCC(=O)NC6=O)C8)C5)CC4)cc3)C2(C)C)ccc1C#N` (stereo partly drawn) [Compound 265] yielded an inhibition at 0.01 µM (AR protein [1]) of 66%, an inhibition at 0.1 µM (AR protein [1]) of 61% and an inhibition at 0.01 µM (AR protein [2]) of 34%. The inhibition at 0.1 µM (AR protein [2]) was 78%, the IC50 (VCaP cells) was 1.5 nM and the IC50 (LNCaP FGC cells) was 44400 nM.
`COc1cc(O[C@H]2C(C)(C)[C@H](NC(=O)c3ccc(N4CCC(C)(CN5CCC6(CC5)COc5c(ccc7c5C(=O)N(C5CCC(=O)NC5=O)C7)C6)CC4)cc3)C2(C)C)ccc1C#N` (stereo partly drawn) [Compound 266] showed an inhibition at 0.01 µM (AR protein [1]) of 49%, an inhibition at 0.1 µM (AR protein [1]) of 73% and an inhibition at 0.01 µM (AR protein [2]) of 21%. For the same molecule, the inhibition at 0.1 µM (AR protein [2]) was 74%, the IC50 (VCaP cells) was 3.5 nM and the IC50 (LNCaP FGC cells) was 22000 nM.
Work on `COc1cc(O[C@H]2C(C)(C)[C@H](NC(=O)c3ccc(N4CCC(C)(CN5CCC6(CCc7cc8c(cc7O6)C(=O)N(C6CCC(=O)NC6=O)C8)CC5)CC4)cc3)C2(C)C)ccc1C#N` (stereo partly drawn) [Compound 267] yielded an inhibition at 0.01 µM (AR protein [1]) of 30%, an inhibition at 0.1 µM (AR protein [1]) of 66% and an inhibition at 0.01 µM (AR protein [2]) of 30%. For the same molecule, the inhibition at 0.1 µM (AR protein [2]) was 69%, the IC50 (VCaP cells) was 4.5 nM and the IC50 (LNCaP FGC cells) was 43200 nM.
`COc1cc(O[C@H]2C(C)(C)[C@H](NC(=O)c3ccc(N4CCC(F)(CN5CC6(CCc7cc8c(cc7O6)C(=O)N(C6CCC(=O)NC6=O)C8=O)C5)CC4)cc3)C2(C)C)ccc1C#N` (stereo partly drawn) [Compound 269] was tested, and the inhibition at 0.01 µM (AR protein [1]) was 35%, the inhibition at 0.1 µM (AR protein [1]) was 61% and the inhibition at 0.01 µM (AR protein [2]) was 7%. The inhibition at 0.1 µM (AR protein [2]) was 63%, the IC50 (VCaP cells) was 270 nM and the IC50 (LNCaP FGC cells) was 11800 nM.
In the case of `COc1cc(O[C@H]2C(C)(C)[C@H](NC(=O)c3ccc(N4CCC(F)(CN5CCC6(CCc7cc8c(cc7O6)C(=O)N(C6CCC(=O)NC6=O)C8=O)CC5)CC4)cc3)C2(C)C)ccc1C#N` (stereo partly drawn) [Compound 270], the inhibition at 0.01 µM (AR protein [1]) is reported as 47%, the inhibition at 0.1 µM (AR protein [1]) is reported as 40% and the inhibition at 0.01 µM (AR protein [2]) is reported as 9%. It also gave an inhibition at 0.1 µM (AR protein [2]) of 28%, an IC50 (VCaP cells) of 110 nM and an IC50 (LNCaP FGC cells) of 72000 nM.
Work on `COc1cc(O[C@H]2C(C)(C)[C@H](NC(=O)c3ccc(N4CCC(F)(CN5CCC6(CC5)COc5cc7c(cc5C6)C(=O)N(C5CCC(=O)NC5=O)C7=O)CC4)cc3)C2(C)C)ccc1C#N` (stereo partly drawn) [Compound 271] yielded an inhibition at 0.01 µM (AR protein [1]) of -3%, an inhibition at 0.1 µM (AR protein [1]) of 10% and an inhibition at 0.01 µM (AR protein [2]) of -47%. The inhibition at 0.1 µM (AR protein [2]) was -5%, the IC50 (VCaP cells) was 100 nM and the IC50 (LNCaP FGC cells) was 37900 nM.
In the case of `COc1cc(O[C@H]2CC[C@H](NC(=O)c3ccc(N4CCC(CN5CCC6(CC5)COc5c6ccc6c5C(=O)N(C5CCC(=O)NC5=O)C6=O)(OC)CC4)nn3)CC2)ccc1C#N` (stereo partly drawn) [Compound 272], the inhibition at 0.01 µM (AR protein [1]) is reported as 45%, the inhibition at 0.1 µM (AR protein [1]) is reported as 52% and the inhibition at 0.01 µM (AR protein [2]) is reported as 38%. The inhibition at 0.1 µM (AR protein [2]) was 75%, the IC50 (VCaP cells) was 63 nM and the IC50 (LNCaP FGC cells) was 100 nM.
